Source: patent US20190218187A1, “Novel 5-substituted imidazolylmethyl derivatives” (Bayer CropScience Aktiengesellschaft, priority 2016, published 2019)
Read-outs that look alike come from different tables or passages of the source.

What was measured:
[1] = LogP by HPLC on reversed phase columns (EEC directive 79/831 Annex V.A8); assay type: physicochemical; conditions: method [a]: LC-UV, acidic range, 0.1% formic acid in water and acetonitrile as eluent (linear gradient 10% to 95% acetonitrile); for chromatographic logP: reversed phase HPLC column
Protocol: [table] If more than one LogP value is available within the same method, all the values are given and separated by “+”. Calibration was done with straight-chain alkan2-ones (with 3 to 16 carbon atoms) with known LogP values (measurement of LogP values using retention times with linear interpolation between successive alkanones). Lambda-max-values were determined using UV-spectra from 200 nm to 400 nm and the peak values of the chromatographic signals.

Septoria tritici = test: In vivo preventive test on Septoria tritici (leaf spot on wheat); conditions: Zymoseptoria tritici, 576 h, read-out: efficacy
Protocol: Example B: In Vivo Preventive Test on Septoria tritici (Leaf Spot on Wheat)
(§1) The active ingredients are made soluble and homogenized in a mixture of Dimethyl sulfoxide/Acetone/Tween® 80 and then diluted in water to the desired concentration.
The young plants of wheat are treated by spraying the active ingredient prepared as described above. Control plants are treated only with an aqueous solution of Acetone/Dimethyl sulfoxide/Tween® 80.
After 24 hours, the plants are contaminated by spraying the leaves with an aqueous suspension of Septoria tritici spores. The contaminated wheat plants are incubated for 72 hours at 18° C. and at 100% relative humidity and then for 21 days at 20° C. and at 90% relative humidity.
The test is evaluated 24 days after the inoculation. 0% means an efficacy which corresponds to that of the control plants while an efficacy of 100% means that no disease is observed.

Sphaerotheca fuliginea = test: In vivo preventive test on Sphaerotheca fuliginea (powdery mildew on cucurbits); conditions: Podosphaera fuliginea, 360 h, read-out: efficacy
Protocol: Example C: In Vivo Preventive Test on Sphaerotheca fuliginea (Powdery Mildew on Cucurbits)
as §1
The young plants of gherkin are treated by spraying the active ingredient prepared as described above. Control plants are treated only with an aqueous solution of Acetone/Dimethyl sulfoxide/Tween® 80.
After 24 hours, the plants are contaminated by spraying the leaves with an aqueous suspension of Sphaerotheca fuliginea spores. The contaminated gherkin plants are incubated for 72 hours at 18° C. and at 100% relative humidity and then for 12 days at 20° C. and at 70-80% relative humidity.
The test is evaluated 15 days after the inoculation. 0% means an efficacy which corresponds to that of the control plants while an efficacy of 100% means that no disease is observed.

[2] = 500 ppm of active ingredient, wheat plants, preventive spray, evaluated 24 days after inoculation, 100% = no disease
[3] = 500 ppm of active ingredient, gherkin plants, preventive spray, evaluated 15 days after inoculation, 100% = no disease

Compound | LogP [1] | further results
N#Cc1cncn1CC(O)(CCc1ccc(Cl)cc1)C1(Cl)CC1 (stereo not drawn) [I-18, 3-[2-(1-chlorocyclopropyl)-4-(4-chlorophenyl)-2-hydroxy-butyl]imidazole-4-carbonitrile] |  | chromatographic logP [1]: 3.42; pest or weed control at 500 ppm (Septoria tritici; [2]): 90 to 100%; pest or weed control at 500 ppm (Sphaerotheca fuliginea; [3]): 90 to 100%
N#Cc1cncn1CC(O)(CCc1ccc(Cl)cc1)c1ccccc1 (stereo not drawn) [I-46, 3-[4-(4-chlorophenyl)-2-hydroxy-2-phenyl-butyl]imidazole-4-carbonitrile] |  | chromatographic logP [1]: 3.13; pest or weed control at 500 ppm (Septoria tritici; [2]): 90 to 100%; pest or weed control at 500 ppm (Sphaerotheca fuliginea; [3]): 90 to 100%
N#Cc1cncn1CC(O)(CCc1cccnc1)C1(F)CC1 (stereo not drawn) [I-23] | 0.53 ^[a] | 
Cc1ccc(CCC(O)(Cn2cncc2C#N)C2(Cl)CC2)cc1 (stereo not drawn) [I-19] | 3.23 ^[a] | 
N#Cc1cncn1CC(O)(CCc1ccccc1)C1(F)CC1 (stereo not drawn) [I-10, 3-[2-(1-fluorocyclopropyl)-2-hydroxy-4-phenyl-butyl]imidazole-4-carbonitrile] |  | chromatographic logP [1]: 2.53; pest or weed control at 500 ppm (Septoria tritici; [2]): 90 to 100%; pest or weed control at 500 ppm (Sphaerotheca fuliginea; [3]): 90 to 100%
CC(C)C(O)(CCc1ccccc1)Cn1cncc1C#N (stereo not drawn) [I-36] | 2.53 ^[a] | 
CC(C)(C)C(O)(CCc1ccc(Cl)cc1)Cn1cncc1C#N (stereo not drawn) [I-02, 3-[2-[2-(4-chlorophenyl)ethyl]-2-hydroxy-3,3-dimethyl-butyl]imidazole-4-carbonitrile] |  | chromatographic logP [1]: 3.31; pest or weed control at 500 ppm (Septoria tritici; [2]): 90 to 100%; pest or weed control at 500 ppm (Sphaerotheca fuliginea; [3]): 90 to 100%
N#Cc1cncn1CC(O)(CCc1ccc(Cl)nc1)C1(Cl)CC1 (stereo not drawn) [I-28, 3-[2-(1-chlorocyclopropyl)-4-(6-chloro-3-pyridyl)-2-hydroxy-butyl]imidazole-4-carbonitrile] |  | chromatographic logP [1]: 2.39; pest or weed control at 500 ppm (Septoria tritici; [2]): 90 to 100%; pest or weed control at 500 ppm (Sphaerotheca fuliginea; [3]): 90 to 100%
N#Cc1cncn1CC(O)(CCc1ccc(C(F)(F)F)cc1)C1(F)CC1 (stereo not drawn) [I-03, 3-[2-(1-fluorocyclopropyl)-2-hydroxy-4-[4-(trifluoromethyl)phenyl]butyl]imidazole-4-carbonitrile] |  | chromatographic logP [1]: 3.15; pest or weed control at 500 ppm (Septoria tritici; [2]): 90 to 100%; pest or weed control at 500 ppm (Sphaerotheca fuliginea; [3]): 90 to 100%
N#Cc1cncn1CC(O)(CCc1ccccc1)C1(Cl)CC1 (stereo not drawn) [I-07] | 2.88 ^[a] | 
N#Cc1cncn1CC(O)(CCc1ccc(Cl)nc1)C1(F)CC1 (stereo not drawn) [I-27] | 2.03 ^[a] | 
N#Cc1cncn1CC(O)(CCc1ccc(C(F)(F)F)cc1)C1(Cl)CC1 (stereo not drawn) [I-08] | 3.48 ^[a] | 
N#Cc1cncn1CC(O)(CCc1ccccc1F)C1(F)CC1 (stereo not drawn) [I-26] | 2.56 ^[a] | 
N#Cc1cncn1CC(O)(CCc1ccc(Cl)cc1F)C1(Cl)CC1 (stereo not drawn) [I-32] | 3.41 ^[a] | 
N#Cc1cncn1CC(O)(CCc1ccc(Cl)cc1)c1ccc(Cl)cc1F (stereo not drawn) [I-51] | 3.79 ^[a] | 
N#Cc1cncn1CC(O)(CCc1ccccc1)C1CCC1 (stereo not drawn) [I-38] | 2.80 ^[a] | 
N#Cc1cncn1CC(O)(CCc1ccc(F)nc1)C1(F)CC1 (stereo not drawn) [I-34] | 1.88 ^[a] | 
N#Cc1cncn1CC(O)(CCc1ccccc1)c1ccccc1 (stereo not drawn) [I-45] | 2.74 ^[a] | 
N#Cc1cncn1CC(O)(CCc1ccccc1)C1CC1 (stereo not drawn) [I-31] | 2.49 ^[a] | 
N#Cc1cncn1CC(O)(CCc1ccccc1)c1ccc(Cl)cc1F (stereo not drawn) [I-49] | 3.37 ^[a] | 

Compound | LogP [1] | further results
CC(C)(CC(O)(Cn1cncc1C#N)C1(Cl)CC1)c1ccccc1 (stereo not drawn) [I-13, 1-[2-(1-chlorocyclopropyl)-2-hydroxy-4-methyl-4-phenylpentyl]-1H-imidazole-5-carbonitrile] |  | chromatographic logP [1]: 3.09; pest or weed control at 500 ppm (Septoria tritici): 90 to 100%; pest or weed control at 500 ppm (Sphaerotheca fuliginea): 90 to 100%
CC1(c2ccc(CCC(O)(Cn3cncc3C#N)C3(F)CC3)cc2)CC1 (stereo not drawn) [I-21] | 3.55 ^[a] | 
CC(C)(C)C(O)(CCc1ccc(Cl)cc1)Cn1cncc1F (stereo not drawn) [I-06, 1-(4-chlorophenyl)-3-[(5-fluoroimidazol-1-yl)methyl]-4,4-dimethyl-pentan-3-ol] |  | chromatographic logP [1]: 2.25; pest or weed control at 500 ppm (Septoria tritici; [2]): 80 to 89%; pest or weed control at 500 ppm (Sphaerotheca fuliginea; [3]): 90 to 100%
N#Cc1cncn1CC(O)(CCc1ccc(Cl)cc1F)C1(F)CC1 (stereo not drawn) [I-25] | 3.00 ^[a] | 
N#Cc1cncn1CC(O)(CCc1ccc(F)cc1F)C1(F)CC1 (stereo not drawn) [I-15] | 2.69 ^[a] | 
CC1(C(O)(CCc2ccccc2)Cn2cncc2C#N)CC1 (stereo not drawn) [I-47] | 2.80 ^[a] | 
N#Cc1cncn1CC(O)(CCc1ccc(Cl)cc1F)c1ccc(Cl)cc1 (stereo not drawn) [I-44] | 3.64 ^[a] | 
N#Cc1cncn1CC(O)(CCc1ccccc1)c1ccc(Cl)cc1 (stereo not drawn) [I-39] | 3.46 ^[a] | 
N#Cc1cncn1CC(O)(CCc1ccc(Cl)cc1F)c1ccccc1 (stereo not drawn) [I-52] | 3.23 ^[a] | 
N#Cc1cncn1CC(O)(CCc1ccc(Cl)cc1)c1ccc(Cl)cc1 (stereo not drawn) [I-40] | 3.96 ^[a] | 
CC1(c2ccc(CCC(O)(Cn3cncc3C#N)C3(Cl)CC3)cc2)CC1 (stereo not drawn) [I-24] | 4.03 ^[a] | 
N#Cc1cncn1CC(O)(CCc1ccccc1)CC1CC1 (stereo not drawn) [I-42] | 2.62 ^[a] | 
N#Cc1cncn1CC(O)(CCc1ccc(F)nc1)C1(Cl)CC1 (stereo not drawn) [I-33] | 2.20 ^[a] | 
N#Cc1cncn1CC(O)(CCc1ccc(Cl)cc1)CC1CC1 (stereo not drawn) [I-43] | 3.02 ^[a] | 
CC(C)(C)c1ccc(CCC(O)(Cn2cncc2C#N)C2(F)CC2)cc1 (stereo not drawn) [I-09] | 3.78 ^[a] | 
N#Cc1cncn1CC(O)(CCc1ccc(Cl)cc1F)c1ccc(Cl)cc1F (stereo not drawn) [I-50] | 3.75 ^[a] | 
Cc1ccc(CCC(O)(Cn2cncc2C#N)C2(F)CC2)cc1 (stereo not drawn) [I-17] | 2.90 ^[a] | 
N#Cc1cncn1CC(O)(CCc1ccc(OC(F)(F)F)cc1)C1(F)CC1 (stereo not drawn) [I-14] | 3.29 ^[a] | 
N#Cc1cncn1CC(O)(CCc1ccc(OC(F)(F)F)c(F)c1)C1(Cl)CC1 (stereo not drawn) [I-16] | 3.69 ^[a] | 
N#Cc1cncn1CC(O)(CCC1Cc2ccccc2O1)C1(F)CC1 (stereo not drawn) [I-53, 1-[4-(2,3-dihydro-1-benzofuran-2-yl)-2-(1-fluorocyclopropyl)-2-hydroxybutyl]-1H-imidazole-5-carbonitrile] |  | chromatographic logP [1]: 2.61

More lines, main results first:

LogP [1] | Compound | further results
4.18 ^[a] | CC(C)(C)c1ccc(CCC(O)(Cn2cncc2C#N)C2(Cl)CC2)cc1 (stereo not drawn) [I-01] | 
2.95 ^[a] | CC(C)C(O)(CCc1ccc(Cl)cc1)Cn1cncc1C#N (stereo not drawn) [I-35] | 
3.42 ^[a] | CC(C)(C)C(O)(CCc1ccc(C(F)(F)F)cc1)Cn1cncc1C#N (stereo not drawn) [I-41] | 
2.90 ^[a] | CC(C)(C)C(O)(CCc1ccccc1)Cn1cncc1C#N (stereo not drawn) [I-20] | 
3.22 ^[a] | Cc1ccc(CCC(O)(Cn2cncc2C#N)C(C)(C)C)cc1 (stereo not drawn) [I-29] | 
2.98 ^[a] | N#Cc1cncn1CC(O)(CCc1ccc(Cl)cc1)C1(F)CC1 (stereo not drawn) [I-22] | 
2.90 ^[a] | N#Cc1cncn1CC(O)(CCc1ccc(Cl)cc1)C1CC1 (stereo not drawn) [I-30] | 
3.02 ^[a] | CC(C)(C)C(O)(CCc1ccc(Cl)cc1)Cn1cncc1C=O (stereo not drawn) [I-05] | 
2.75 ^[a] | CC(C)(C)C(O)(CCc1ccc(Cl)cc1)Cn1cncc1Br (stereo not drawn) [I-11] | 
3.23 ^[a] | N#Cc1cncn1CC(O)(CCc1ccc(Cl)cc1)C1CCC1 (stereo not drawn) [I-37] | 
3.22 ^[a] | CC1(C(O)(CCc2ccc(Cl)cc2)Cn2cncc2C#N)CC1 (stereo not drawn) [I-48] | 
2.78 ^[a] | CC(C)(C)C(O)(CCc1ccc(Cl)cc1)Cn1cncc1Cl (stereo not drawn) [I-04] | 
2.73 ^[a] | OC(CCc1ccc(Cl)cc1)(Cn1cncc1Cl)C1(Cl)CC1 (stereo not drawn) [I-12] | 
